Assay results from patent publication US9770481B2, “Inhibitors of NOX1” (UNIVERSITY OF PITTSBURGH—OF THE COMMONWEALTH SYSTEM OF …, priority 2011, dated 2017).

What was measured:
Assay type in all cases: cell-based
Nox1 = biological target: T1, Nox1 (Homo sapiens, UniProt Q9Y5S8); assay: O2- production by COS22 cells transfected with Nox1 (cytochrome c reduction); conditions: COS 22; at a dose of 1.0 μM; read-out: Maximal inhibition of total O2- production
T1 construct: expressed in transfected cells; host or cells: COS22 (monkey kidney COS cells stably expressing human p22phox)
T1 sequence (Q9Y5S8 1-564): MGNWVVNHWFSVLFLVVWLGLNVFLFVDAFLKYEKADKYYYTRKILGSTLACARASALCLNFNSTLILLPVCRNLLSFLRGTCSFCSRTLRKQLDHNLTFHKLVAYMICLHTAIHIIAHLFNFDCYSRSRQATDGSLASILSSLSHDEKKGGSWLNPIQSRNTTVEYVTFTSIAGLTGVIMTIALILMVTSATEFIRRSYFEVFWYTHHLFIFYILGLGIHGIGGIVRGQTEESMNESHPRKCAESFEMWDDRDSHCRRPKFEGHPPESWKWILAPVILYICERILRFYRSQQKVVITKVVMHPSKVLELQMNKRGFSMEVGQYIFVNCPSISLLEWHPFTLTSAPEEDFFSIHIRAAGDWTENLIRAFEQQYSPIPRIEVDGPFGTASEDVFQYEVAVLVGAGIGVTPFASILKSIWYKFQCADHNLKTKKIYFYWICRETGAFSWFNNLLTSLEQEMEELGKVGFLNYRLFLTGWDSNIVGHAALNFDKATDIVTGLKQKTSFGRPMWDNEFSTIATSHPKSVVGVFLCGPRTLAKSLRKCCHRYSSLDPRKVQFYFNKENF
T1 sequence (P13498 1-195 partner): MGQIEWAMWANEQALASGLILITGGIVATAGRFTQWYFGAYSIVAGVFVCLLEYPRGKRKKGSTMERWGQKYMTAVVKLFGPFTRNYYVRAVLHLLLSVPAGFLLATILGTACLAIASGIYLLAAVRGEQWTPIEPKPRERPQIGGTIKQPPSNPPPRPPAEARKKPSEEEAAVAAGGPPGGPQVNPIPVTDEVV
Description: Experiments were performed to test the effect of NoxA1ds on O2^− production by Nox1. COS22 is a monkey kidney COST cell line expressing transgenic human p22phox and was produced by stable transfection of the full-length p22phox cDNA into parental COST wild-type cells. COS22 cells were transfected with Nox1 to express the Nox1 enzyme and were then treated with either NoxA1ds or its scrambled control (SCRMB). Production of O2^− was calculated by monitoring the reduction of cytochrome c for 15 minutes post NADPH addition and subtracting baseline cytochrome c reduction occurring in the presence of SOD.

[1] = tested on: rat aortic smooth muscle cells; assay: Calponin and osteopontin expression in stretched rat aortic smooth muscle cells (Western blot); conditions: 10 μM added every four hours; cyclic stretch 24 hrs
Description: The effect of Nox1 inhibition on the expression of certain protein markers of rat aortic smooth muscle cell contractile vs. synthetic phenotypes was evaluated. Cells were subjected to 24 hrs of cyclic stretch (10%, 1 Hz) with 10 μM NoxA1ds or SCRMB control being added every four hours. […] Calponin expression during stretch was rescued by the addition of 10 μM NoxA1ds, yet was unaffected by the addition of 10 μM scrambled peptide (SCRMB). A representative Western blot is shown below the graph (FIG. 9B). Osteopontin (OPN, a marker of the […] phenotype), expression increased after 24 hrs of stretch.

[2] = tested on: HT-29 colon adenocarcinoma cells; assay: O2- production by HT-29 cells (SOD inhibitable reduction of cytochrome c); conditions: increasing doses
[3] = biological target: T2, interaction between Nox1 and NoxA1 (Homo sapiens, UniProt Q9Y5S8); assay: FRET between Nox1-YFP and NoxA1-CFP in transfected COS22 cells; conditions: 10 μM, one hour prior to imaging
T2 construct: expressed in transfected cells; host or cells: COS22
T2 sequence (Q9Y5S8 1-564): T1 sequence (Q9Y5S8 1-564)
T2 sequence (P13498 2-195 partner limits assumed): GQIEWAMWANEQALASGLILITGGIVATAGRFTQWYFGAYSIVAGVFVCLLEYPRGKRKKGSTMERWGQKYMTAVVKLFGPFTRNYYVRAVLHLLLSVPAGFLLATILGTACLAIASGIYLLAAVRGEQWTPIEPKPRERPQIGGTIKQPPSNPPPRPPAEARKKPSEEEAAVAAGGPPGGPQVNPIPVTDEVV
Description: FRET (fluorescence resonance energy transfer) studies were performed to study the effect of NoxA1ds on the interaction between Nox1 and NoxA1: In particular, FRET between Nox1-YFP and NoxA1-CFP transfected COS22 cells in the presence or absence of 10 μM NoxA1ds or SCRMB was evaluated. Relative fluorescence of CFP is green while YFP is red. Traces underneath the images indicate fluorescent intensities of CFP and YFP underneath the arrow overlaid on each cell.

inhibition at 1 µM (Nox1): 88%
Substance: H-EPVDALGKAKV-NH2 [NoxA1ds, [NH3^+]-EPVDALGKAKV-[CONH2]]
Calponin expression during stretch [1]: rescued
Osteopontin (OPN) expression during stretch [1]: returned to levels observed in the absence of stretch
Inhibition of O2- production by HT-29 cells [2]: dose-dependent inhibition
CFP fluorescence after photobleaching of Nox1-YFP (FRET) [3]: did not result in a concomitant increase in CFP fluorescence
